Data as given in ChEMBL document CHEMBL1201862, “PubChem BioAssay data set” (2004).
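Step 1: Grow cells in 96-well plates. Step 2: Expose to compound for 48 hours at 5 concentrations. Step 3: Interpolate endpoints linearly; if unreached, use highest concentration. GI50 marks 50% less growth.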 The source made the active and inactive calls. Cut-off read from the data, not from the text of the source: active = GI50 up to about 1.1 µM and inactive = higher.

Experiments:
Test in all cases: growth of human tumour cells (NCI), 48 h
[1] = tested on: RXF 393
[2] = tested on: SK-MEL-28
[3] = tested on: SNB-19
[4] = tested on: MDA-MB-231
[5] = tested on: KM12
[6] = tested on: SF-295
[7] = tested on: NCI-H226
[8] = tested on: Hs-578T
[9] = tested on: IGROV-1
[10] = tested on: DU-145
[11] = tested on: MCF7
[12] = tested on: EKVX
[13] = tested on: NCI/ADR-RES
[14] = tested on: SR
[15] = tested on: UO-31
[16] = tested on: CCRF-CEM
[17] = tested on: OVCAR-8
[18] = tested on: U-251
[19] = tested on: NCI-H522
[20] = tested on: K562

| SMILES | GI50 [1] | GI50 [2] | GI50 [3] | GI50 [4] | GI50 [5] | GI50 [6] | GI50 [7] | GI50 [8] | GI50 [9] | GI50 [10] | GI50 [11] | GI50 [12] | GI50 [13] | GI50 [14] | GI50 [15] | GI50 [16] | GI50 [17] | GI50 [18] | GI50 [19] | GI50 [20] |
| --- | --- | --- | --- | --- | --- | --- | --- | --- | --- | --- | --- | --- | --- | --- | --- | --- | --- | --- | --- | --- |
| CC(C)NC(=O)OCc1c(COC(=O)NC(C)C)c(-c2cc[n+](COC(=O)C3CCCCC3)cc2)n2c1CCC2 | > 100 µM (inactive) | > 100 µM (inactive) | > 100 µM (inactive) | > 100 µM (inactive) | > 100 µM (inactive) | > 100 µM (inactive) | > 100 µM (inactive) | > 100 µM (inactive) | > 100 µM (inactive) | > 100 µM (inactive) | 83.4 µM (inactive) | > 100 µM (inactive) | > 100 µM (inactive) | 9.25 µM (inactive) | > 100 µM (inactive) | 44.8 µM (inactive) | > 100 µM (inactive) | > 100 µM (inactive) | > 100 µM (inactive) | > 100 µM (inactive) |
| Cc1[nH]c(-c2ccccc2)c(O)c1C(=O)OC12CC3CC(CC(C3)C1)C2 | 6.73 µM (inactive) | 14.7 µM (inactive) | 15 µM (inactive) | 18.5 µM (inactive) | 5.01 µM (inactive) | 2.93 µM (inactive) | 14.1 µM (inactive) | 10.3 µM (inactive) | 14.1 µM (inactive) | 15.6 µM (inactive) | 14.1 µM (inactive) | 13.8 µM (inactive) | 13.7 µM (inactive) | 12.6 µM (inactive) | 17 µM (inactive) | 39 µM (inactive) | 12.9 µM (inactive) | 14.9 µM (inactive) | 10.1 µM (inactive) | > 100 µM (inactive) |
| Cc1cccc2cc3ccc4ccccc4c3cc12 | 75.2 µM (inactive) | > 100 µM (inactive) | 76.2 µM (inactive) | 51.3 µM (inactive) | 37.2 µM (inactive) | 40.8 µM (inactive) | 37 µM (inactive) | > 100 µM (inactive) | 55 µM (inactive) | 66.5 µM (inactive) | 8.28 µM (inactive) | 21.2 µM (inactive) | > 100 µM (inactive) | 22.2 µM (inactive) | 77.8 µM (inactive) | 20.1 µM (inactive) | > 100 µM (inactive) | 41.4 µM (inactive) | 27.9 µM (inactive) | 63.1 µM (inactive) |
| CC(=O)c1ccc(Nc2c3c(nc4ccccc24)CCCC3)cc1 | 20.5 µM (inactive) | 50.7 µM (inactive) | 20.2 µM (inactive) | 19.6 µM (inactive) | 7.29 µM (inactive) | 11.2 µM (inactive) | 14 µM (inactive) | 27.9 µM (inactive) | 3.79 µM (inactive) | 20 µM (inactive) | 18.7 µM (inactive) | 28 µM (inactive) | 10.4 µM (inactive) | 2.47 µM (inactive) | 5.58 µM (inactive) | 15.9 µM (inactive) | 17.7 µM (inactive) | 19.1 µM (inactive) | 3.85 µM (inactive) | 16.4 µM (inactive) |
| COc1cc([C@H]2CC(=O)C[C@@H](c3cc(OC)c(OC)c(OC)c3)C23C(=O)c2ccccc2C3=O)cc(OC)c1OC | > 100 µM (inactive) | > 100 µM (inactive) | > 100 µM (inactive) | > 100 µM (inactive) | > 100 µM (inactive) | > 100 µM (inactive) | > 100 µM (inactive) | > 100 µM (inactive) | > 100 µM (inactive) | > 100 µM (inactive) | > 100 µM (inactive) | 91.8 µM (inactive) | > 100 µM (inactive) | > 100 µM (inactive) | > 100 µM (inactive) | > 100 µM (inactive) | > 100 µM (inactive) | > 100 µM (inactive) | > 100 µM (inactive) | > 100 µM (inactive) |
| [N-]=[N+]=C(C(=O)CN1CCCC1=O)S(=O)(=O)c1ccccc1 | > 100 µM (inactive) | > 100 µM (inactive) | > 100 µM (inactive) | > 100 µM (inactive) | > 100 µM (inactive) | > 100 µM (inactive) | > 100 µM (inactive) | > 100 µM (inactive) | > 100 µM (inactive) | > 100 µM (inactive) | > 100 µM (inactive) | > 100 µM (inactive) | > 100 µM (inactive) | > 100 µM (inactive) | > 100 µM (inactive) | > 100 µM (inactive) | > 100 µM (inactive) | > 100 µM (inactive) | > 100 µM (inactive) | > 100 µM (inactive) |
| CCCCCCCCCCCC[C@@H](O)[C@H]1CCC([C@H](O)CCCCC(=O)CCCCCCCC2=C[C@H](C)OC2=O)O1 (stereo not given in full) | 11.6 µM (inactive) | 19.2 µM (inactive) | > 28.2 µM (inactive) | > 41.7 µM (inactive) | 13.1 µM (inactive) | 20.1 µM (inactive) | 15.8 µM (inactive) | 11.3 µM (inactive) | > 50 µM (inactive) | > 50 µM (inactive) | 2.45 µM (inactive) | 14.1 µM (inactive) | 12.6 µM (inactive) | 0.0773 µM (active) | 7.16 µM (inactive) | 4.59 µM (inactive) | 28.5 µM (inactive) | 13.3 µM (inactive) | 15.4 µM (inactive) | 2.98 µM (inactive) |
